Assay results as given in publication PMC4603303, “Activity of Novel Synthetic Peptides against Candida albicans” (Scientific Reports, 2015).
Where two headings read alike, the source gives them in different places. Ends that are not written are not given here.

What was measured:
C. albicans SC5314 = experiment: Time killing assay; type: cell-based, Candida albicans
Procedure: A fungal suspension was adjusted to a 0.5 McFarland turbidity standard with cell density of 1 × 10^6 to 5 × 10^6 cells/ml. 100 μL of adjusted yeast suspension was exposed to 900 μL of RPMI medium containing peptide, yielding a starting inoculum of approximately 10^5 cells/ml. The solutions were incubated at 37°C with agitation. At the predetermined time interval of 0, 1, 2, 4 and 6 hours, 10 μL or 30 μL of the samples were removed, serially diluted with phosphate-buffered saline (PBS) and plated on SDA plates to allow colony counts after 24 hours of incubation. Controls for yeast growth and antifungal agents were also performed. The lower limit of accurate and reproducible quantitation was 100 CFU/ml. Results were obtained from three independent experiments.

[1] = system: Candida parapsilosis ATCC 22019; experiment: MIC, broth microdilution (CLSI M27-A2); type: cell-based
Procedure: (§1) C. albicans strains SC5314 and ATCC 90028, C. krusei ATCC 6258 and C. parapsilosis ATCC 22019 were used in the study. The strains were stored at −80°C in nutrient broth supplemented with 2.0% glycerol stock. Prior to experimentation, each strain was streaked for single colonies on Sabouraud Dextrose (SDA) agar plates and incubated overnight at 37°C.
(§2) Antifungal activity of the designed peptides was determined according to a standardized broth microdilution method (Clinical and Laboratory Standards Institute (CLSI) document M27-A2). Briefly, the yeast colonies from 24- hour-old cultures of Candida species were picked and resuspended in 5 mL of sterile 0.145 mol/L saline and adjusted to cell density of 1 × 10^6 to 5 × 10^6 cells/ml. The yeast stock suspension was then diluted to obtain a starting inoculum of 5.0 × 10^2 to 2.5 × 10^3 cells/ml. […] The drugs were dissolved in DMSO and prepared to a stock concentration of 25 mg/L and 50 mg/L, respectively. […] 100 μL of standardized yeast suspension was then added to each well. Plates were incubated for 48 hours at 37°C. The minimum inhibitory concentration (MIC) was defined as the lowest concentration that inhibited 90% growth of Candida species. The MICs were determined three times and each time in duplicate.

Candida albicans SC 5314 = experiment: MIC, broth microdilution (CLSI M27-A2); type: cell-based
Procedure: as §1, §2

Candida krusei ATCC 6258 = experiment: MIC, broth microdilution (CLSI M27-A2); type: cell-based
Procedure: as §1, §2

[2] = system: Candida albicans ATCC 90028; experiment: MIC, broth microdilution (CLSI M27-A2); type: cell-based
Procedure: as §1, §2

human erythrocytes = experiment: Haemolytic assay; type: cell-based
Procedure: Freshly collected human blood with heparin was centrifuged to remove the buffy coat. The erythrocytes were washed three times with PBS, centrifuged for 10 min at 2000 rpm at 10°C, and resuspended in PBS to 4% (vol/vol). […] PBS and 0.1% Triton X-100 were used as agents to induce 0 and 100% haemolysis, respectively. Plates were incubated for 1 hour at 37°C and centrifuged at 2000 rpm for 10 min. The supernatant (100 μL) was transferred to a 96-well flat-bottomed polystyrene plate, and the release of haemoglobin was monitored by measuring the absorbance at 560 nm using a microplate reader. Results were repeated three times and each time in duplicate. The percentage of haemolysis was calculated using the following formula: [drawing 2] where Ap and A100 represent the absorbance of erythrocytes treated with peptide and 0.1% Triton X-100. A0 is the absorbance of erythrocytes without treatment.

Candida strains = experiment: MIC, broth microdilution, range stated over several Candida strains; type: cell-based, Candida spp.
Procedure: as §1, §2

VK2/E6E7 cell line = experiment: cells
Procedure: (§3) The human normal vaginal epithelial cell line VK2/E6E7 (ATCC® CRL-2616™) and human normal esophagus epithelial cell line Het-1A (ATCC® CRL-2692™) were used for cytotoxicity testing. VK2/E6E7 cell line was grown in Keratinocyte-Serum Free medium (GIBCO-BRL 17005-042) supplemented with 0.1 ng/ml human recombinant EGF, 0.05 mg/ml bovine pituitary extract, and 44.1 mg/L calcium chloride. […] Cell viability was measured by using CellTiter 96® Aqueous Non-Radioactive Cell Proliferation Assay (Promega, USA) and the colourimetric changes were determined at 490 nm using a microplate reader. […] Results were recorded by averaging three repeated experiments and each experiment was performed in duplicate.

Het-1A cell line = experiment: cells
Procedure: as §3

[3] = range against C. albicans and C. krusei

Substance	Minimum Inhibitory Concentration (MIC) ([1]; ATCC 22019, 48 h) [µg/mL]	Minimum Inhibitory Concentration (MIC) (Candida albicans SC 5314; SC 5314, 48 h) [µg/mL]	Minimum Inhibitory Concentration (MIC) (Candida krusei ATCC 6258; ATCC 6258, 48 h) [µg/mL]	Minimum Inhibitory Concentration (MIC) ([2]; ATCC 90028, 48 h) [µg/mL]	Haemolytic activity HC10 (human erythrocytes; red cells of human, 1 h) [mg/L]	Haemolytic activity HC50 (human erythrocytes; red cells of human, 1 h) [mg/L]	IC50 (VK2/E6E7 cell line; 24 h) [µg/mL]	IC50 (VK2/E6E7 cell line; 48 h) [µg/mL]	IC50 (VK2/E6E7 cell line; 72 h) [µg/mL]	IC50 (Het-1A cell line; 24 h) [µg/mL]	IC50 (Het-1A cell line; 48 h) [µg/mL]	IC50 (Het-1A cell line; 72 h) [µg/mL]	% killing (C. albicans SC5314; SC5314, 6 h, 2) [%]	mean log decrease in viable cells (C. albicans SC5314; SC5314, 6 h, 2) [log CFU/mL]	MIC values, range (Candida strains; 48 h) [µg/mL]	other results
GVIKAAKKVVKVLKKLF-NH2 [Upn-lys6]	16	32	32	64	>256	>256	9.07 ± 1.92	10.04 ± 3.27	9.87 ± 1.46	7.49 ± 1.77	7.92 ± 1.22	11.20 ± 0.86				% killing (C. albicans SC5314; SC5314, 4 h, 2): > 99.99%; mean log decrease in viable cells (C. albicans SC5314; SC5314, 4 h, 2): 5.56 ± 0.07 log CFU/mL; MIC values, range (Candida strains; [3]): 32 to 64 µg/mL
GIWKKWIKKVVNVLKNLF-NH2 [KU1]	16	16	32	32	8.07 ± 1.60	58.19 ± 2.04	4.28 ± 0.60	4.71 ± 0.22	7.84 ± 1.99	3.61 ± 0.19	4.59 ± 0.26	7.27 ± 1.17	99.82	2.95 ± 0.59	16 to 32	
GIWKKWIKKWLKKLLKKLWKKG-NH2 [KABT-AMP, reference compound]																% killing (C. albicans SC5314; 2× MIC, within 4 hours): > 99.99%; mean log decrease in viable cells (C. albicans SC5314; 2× MIC, within 4 hours, RPMI, 37°C, mean ± SD of three experiments): 5.4 ± 0.09 log CFU/mL; Minimum Inhibitory Concentration (MIC) ([1]; C. parapsilosis ATCC 22019, RPMI 1640-MOPS, 48 h, 37°C, lowest concentration inhibiting 90% growth, three times in duplicate): 64 µg/mL; Minimum Inhibitory Concentration (MIC) (Candida albicans SC 5314; C. albicans SC 5314, RPMI 1640-MOPS, 48 h, 37°C, lowest concentration inhibiting 90% growth, three times in duplicate): 32 µg/mL; Minimum Inhibitory Concentration (MIC) (Candida krusei ATCC 6258; C. krusei ATCC 6258, RPMI 1640-MOPS, 48 h, 37°C, lowest concentration inhibiting 90% growth, three times in duplicate): 64 µg/mL; Minimum Inhibitory Concentration (MIC) ([2]; C. albicans ATCC 90028, RPMI 1640-MOPS, 48 h, 37°C, lowest concentration inhibiting 90% growth, three times in duplicate): 64 µg/mL; Haemolytic activity HC10 (human erythrocytes; concentration causing 10% haemolysis, 1 hour, 37°C, erythrocyte suspension 4% in PBS, three times in duplicate): 4.67 ± 2.09 mg/L; Haemolytic activity HC50 (human erythrocytes; concentration causing 50% haemolysis, 1 hour, 37°C, erythrocyte suspension 4% in PBS, three times in duplicate): 81.23 ± 8.92 mg/L; MIC values, range (Candida strains; range against four Candida strains (C. albicans and non-albicans species)): 32 to 64 µg/mL
GIWKKWIKKWLNVLKNLF-NH2 [KU2]	8	8	16	16	7.33 ± 0.73	57.71 ± 9.80	5.42 ± 0.49	7.01 ± 0.84	11.38 ± 1.75	5.51 ± 0.44	6.03 ± 0.43	8.89 ± 1.40	99.73	2.77 ± 0.54	8 to 16	
GVIKAAKKVVKVLKNLF-NH2 [Upn-lys5]	32	32	32	64	>256	>256	8.67 ± 2.21	10.28 ± 4.53	9.12 ± 1.20	9.73 ± 1.19	9.83 ± 1.40	15.73 ± 0.39	99.99	4.95 ± 1.24		MIC values, range (Candida strains; [3]): 32 to 64 µg/mL
GVIDAAKKVVNVLKNLF-NH2 [Uperin 3.6, reference compound]	128	64	64	128			17.14 ± 4.32	23.59 ± 1.18	24.69 ± 6.02	17.60 ± 2.52	17.94 ± 1.96	23.23 ± 2.98			64 to 128	% killing (C. albicans SC5314; SC5314, 4 h, 2): > 99.99%; mean log decrease in viable cells (C. albicans SC5314; SC5314, 4 h, 2): 5.54 ± 0.13 log CFU/mL; Haemolytic activity HC10 (human erythrocytes): > 256 mg/L; Haemolytic activity HC50 (human erythrocytes): > 256 mg/L
GVIKAAKKVVNVLKNLF-NH2 [Upn-lys4]	64	64	64	128	>256	>256	15.45 ± 2.64	16.55 ± 0.55	19.98 ± 1.84	14.12 ± 4.35	14.71 ± 4.44	23.64 ± 2.82	99.97	4.12 ± 1.36		
GIWKKWIKKWLKVLKNLF-NH2 [KU3]	8	8	16	16	5.65 ± 0.85	55.20 ± 11.90	4.43 ± 0.39	5.32 ± 0.84	7.83 ± 1.41	4.33 ± 0.52	4.62 ± 0.65	6.36 ± 1.34	99.94	3.28 ± 0.30	8 to 16	
GIWKKWIKKWLKKLKNLF-NH2 [KU4]	32	32	16	64	49.38 ± 5.14		8.75 ± 1.04	10.55 ± 2.33	19.46 ± 4.29	9.75 ± 1.34	10.47 ± 0.50	14.53 ± 1.58	> 99.99	5.55 ± 0.08	16 to 64	Haemolytic activity HC50 (human erythrocytes): > 256 mg/L
